ChEMBL document CHEMBL4184149, “Discovery and process development of a novel TACE inhibitor for the topical treatment of psoriasis” (Bioorg Med Chem, 2018)
≈ marks a conversion by molar mass, not a printed value.

What was measured:
[1] = target: T1, Disintegrin and metalloproteinase domain-containing protein 17 (Homo sapiens, UniProt P78536); assay: Inhibition of TACE in human PBMC assessed as reduction in LPS-induced TNFalpha production incubated overnight by HTRF assay; assay type: cell-based
[2] = Aqueous solubility of the compound in PBS at pH 7.4 at 20 degC after 24 hrs by HPLC analysis; assay type: physicochemical
[3] = Stability of the compound in propylene glycol/ethanol96 at 0.1 mg/ml measured up to 3 months by HPLC analysis; assay type: physicochemical; settings: read-out: Stability
[4] = Half life in human neonatal keratinocytes at 1 uM by LC-MS/MS analysis; assay type: ADME, cell-based
[5] = Photoirritancy factor, ratio of EC50 for human neonatal keratinocytes under dark condition to EC50 for human neonatal keratinocytes under 5 J/cm2 UV light exposure; assay type: toxicity; settings: read-out: Ratio EC50
[6] = tested on: TK6; assay: Genotoxicity in p53-competent human TK6 cells in presence of Sprague-Dawley rat S9 fraction by GADD45alpha GFP reporter assay; assay type: toxicity, cell-based
[7] = tested on: TK6; assay: Genotoxicity in p53-competent human TK6 cells in absence of Sprague-Dawley rat S9 fraction by GADD45alpha GFP reporter assay; assay type: toxicity, cell-based
[8] = target: T1, Disintegrin and metalloproteinase domain-containing protein 17; assay: Inhibition of recombinant human TACE catalytic domain using Mca-Pro-Leu-Ala-Gln-Ala-Val-Dpa-Arg-Ser-Ser-Ser-Arg-NH2 as substrate after 2 hrs by fluorescence assay
[9] = target: T2, Disintegrin and metalloproteinase domain-containing protein 10 (Homo sapiens, UniProt O14672); assay: Inhibition of ADAM10 (unknown origin)
T2 sequence (O14672 whole entry): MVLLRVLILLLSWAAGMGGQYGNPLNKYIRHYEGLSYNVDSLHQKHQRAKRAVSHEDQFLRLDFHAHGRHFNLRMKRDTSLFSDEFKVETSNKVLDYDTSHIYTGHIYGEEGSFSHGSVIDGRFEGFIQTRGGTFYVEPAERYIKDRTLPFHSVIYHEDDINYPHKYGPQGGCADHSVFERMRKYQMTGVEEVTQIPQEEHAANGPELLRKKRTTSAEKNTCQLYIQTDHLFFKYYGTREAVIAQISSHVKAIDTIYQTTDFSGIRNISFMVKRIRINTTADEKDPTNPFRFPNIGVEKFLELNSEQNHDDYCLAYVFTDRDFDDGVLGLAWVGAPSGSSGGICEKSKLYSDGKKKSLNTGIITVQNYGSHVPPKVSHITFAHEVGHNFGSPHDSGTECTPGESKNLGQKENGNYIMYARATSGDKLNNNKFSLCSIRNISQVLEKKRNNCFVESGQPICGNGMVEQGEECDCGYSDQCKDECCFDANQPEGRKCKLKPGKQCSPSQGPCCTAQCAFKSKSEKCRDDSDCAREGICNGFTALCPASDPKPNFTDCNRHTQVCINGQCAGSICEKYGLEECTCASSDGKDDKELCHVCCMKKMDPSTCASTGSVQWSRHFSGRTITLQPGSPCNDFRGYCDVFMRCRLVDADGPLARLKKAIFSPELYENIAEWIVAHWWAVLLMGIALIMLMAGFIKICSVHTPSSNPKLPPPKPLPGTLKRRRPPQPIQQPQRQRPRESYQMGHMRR

[10] = target: T3, Interstitial collagenase (Homo sapiens, UniProt P03956); assay: Inhibition of recombinant human MMP1 catalytic domain using Mca-Pro-Leu-Gly-Leu-Dpa-Ala-Arg-NH2 as substrate after 10 mins by fluorescence assay
T3 sequence (P03956 whole entry): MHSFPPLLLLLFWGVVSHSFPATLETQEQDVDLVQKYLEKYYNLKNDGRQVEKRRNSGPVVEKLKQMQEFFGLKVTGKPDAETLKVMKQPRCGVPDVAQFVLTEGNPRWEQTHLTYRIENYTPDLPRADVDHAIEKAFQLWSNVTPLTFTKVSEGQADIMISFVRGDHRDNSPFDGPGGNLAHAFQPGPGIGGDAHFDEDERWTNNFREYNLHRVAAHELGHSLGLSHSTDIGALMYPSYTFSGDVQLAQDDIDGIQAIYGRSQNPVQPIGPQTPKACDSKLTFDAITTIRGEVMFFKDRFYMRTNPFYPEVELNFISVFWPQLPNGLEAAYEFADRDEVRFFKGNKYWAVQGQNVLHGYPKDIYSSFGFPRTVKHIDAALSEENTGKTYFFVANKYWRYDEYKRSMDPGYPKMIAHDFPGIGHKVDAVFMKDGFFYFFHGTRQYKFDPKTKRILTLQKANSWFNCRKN

[11] = target: 72 kDa type IV collagenase (Homo sapiens, UniProt P08253); assay: Inhibition of MMP2 (unknown origin)
[12] = target: Stromelysin-1 (Homo sapiens, UniProt P08254); assay: Inhibition of MMP3 (unknown origin)
[13] = target: T4, Matrilysin (Homo sapiens, UniProt P09237); assay: Inhibition of MMP7 (unknown origin)
T4 sequence (P09237 whole entry): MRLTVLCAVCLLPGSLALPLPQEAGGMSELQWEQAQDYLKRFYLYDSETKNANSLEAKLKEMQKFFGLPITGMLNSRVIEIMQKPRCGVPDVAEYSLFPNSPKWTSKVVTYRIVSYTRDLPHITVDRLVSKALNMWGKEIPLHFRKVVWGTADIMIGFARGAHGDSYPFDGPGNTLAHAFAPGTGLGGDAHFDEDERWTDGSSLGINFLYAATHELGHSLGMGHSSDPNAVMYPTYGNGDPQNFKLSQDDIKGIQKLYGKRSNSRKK

[14] = target: Neutrophil collagenase (Homo sapiens, UniProt P22894); assay: Inhibition of MMP8 (unknown origin)
[15] = target: Matrix metalloproteinase-9 (Homo sapiens, UniProt P14780); assay: Inhibition of MMP9 (unknown origin)
[16] = target: Macrophage metalloelastase (Homo sapiens, UniProt P39900); assay: Inhibition of MMP12 (unknown origin)
[17] = target: Collagenase 3 (Homo sapiens, UniProt P45452); assay: Inhibition of MMP13 (unknown origin)
[18] = target: Matrix metalloproteinase-14 (Homo sapiens, UniProt P50281); assay: Inhibition of MMP14 (unknown origin)
[19] = Fraction unbound in human plasma at 5 uM after 4 hrs by LC-MS/MS analysis; assay type: ADME, cell-free
[20] = tested on: Salmonella typhimurium; assay: Mutagenicity in Salmonella typhimurium TA98 in presence of rat S9 fraction by Ames test; assay type: toxicity, organism-based; settings: salmonella enterica subsp. enterica serovar typhimurium
[21] = tested on: Salmonella typhimurium; assay: Mutagenicity in Salmonella typhimurium TA98 in absence of rat S9 fraction by Ames test; assay type: toxicity, organism-based; settings: salmonella enterica subsp. enterica serovar typhimurium
[22] = tested on: Salmonella typhimurium; assay: Mutagenicity in Salmonella typhimurium TA100 in presence of rat S9 fraction by Ames test; assay type: toxicity, organism-based; settings: salmonella enterica subsp. enterica serovar typhimurium
[23] = tested on: Salmonella typhimurium; assay: Mutagenicity in Salmonella typhimurium TA100 in absence of rat S9 fraction by Ames test; assay type: toxicity, organism-based; settings: salmonella enterica subsp. enterica serovar typhimurium
[24] = tested on: TK6; assay: Genotoxicity in human TK6 cells in presence of rat S9 fraction by Giemsa staining based micronucleus assay; assay type: toxicity, cell-based
[25] = tested on: TK6; assay: Genotoxicity in human TK6 cells in absence of rat S9 fraction by Giemsa staining based micronucleus assay; assay type: toxicity, cell-based
[26] = target: Voltage-gated inwardly rectifying potassium channel KCNH2 (Homo sapiens, UniProt Q12809); assay: Inhibition of human ERG expressed in CHO-K1 cells assessed as reduction in tail current amplitude by patch clamp assay; assay type: cell-based
Sequence of Voltage-gated inwardly rectifying potassium channel KCNH2 (Q12809 whole entry): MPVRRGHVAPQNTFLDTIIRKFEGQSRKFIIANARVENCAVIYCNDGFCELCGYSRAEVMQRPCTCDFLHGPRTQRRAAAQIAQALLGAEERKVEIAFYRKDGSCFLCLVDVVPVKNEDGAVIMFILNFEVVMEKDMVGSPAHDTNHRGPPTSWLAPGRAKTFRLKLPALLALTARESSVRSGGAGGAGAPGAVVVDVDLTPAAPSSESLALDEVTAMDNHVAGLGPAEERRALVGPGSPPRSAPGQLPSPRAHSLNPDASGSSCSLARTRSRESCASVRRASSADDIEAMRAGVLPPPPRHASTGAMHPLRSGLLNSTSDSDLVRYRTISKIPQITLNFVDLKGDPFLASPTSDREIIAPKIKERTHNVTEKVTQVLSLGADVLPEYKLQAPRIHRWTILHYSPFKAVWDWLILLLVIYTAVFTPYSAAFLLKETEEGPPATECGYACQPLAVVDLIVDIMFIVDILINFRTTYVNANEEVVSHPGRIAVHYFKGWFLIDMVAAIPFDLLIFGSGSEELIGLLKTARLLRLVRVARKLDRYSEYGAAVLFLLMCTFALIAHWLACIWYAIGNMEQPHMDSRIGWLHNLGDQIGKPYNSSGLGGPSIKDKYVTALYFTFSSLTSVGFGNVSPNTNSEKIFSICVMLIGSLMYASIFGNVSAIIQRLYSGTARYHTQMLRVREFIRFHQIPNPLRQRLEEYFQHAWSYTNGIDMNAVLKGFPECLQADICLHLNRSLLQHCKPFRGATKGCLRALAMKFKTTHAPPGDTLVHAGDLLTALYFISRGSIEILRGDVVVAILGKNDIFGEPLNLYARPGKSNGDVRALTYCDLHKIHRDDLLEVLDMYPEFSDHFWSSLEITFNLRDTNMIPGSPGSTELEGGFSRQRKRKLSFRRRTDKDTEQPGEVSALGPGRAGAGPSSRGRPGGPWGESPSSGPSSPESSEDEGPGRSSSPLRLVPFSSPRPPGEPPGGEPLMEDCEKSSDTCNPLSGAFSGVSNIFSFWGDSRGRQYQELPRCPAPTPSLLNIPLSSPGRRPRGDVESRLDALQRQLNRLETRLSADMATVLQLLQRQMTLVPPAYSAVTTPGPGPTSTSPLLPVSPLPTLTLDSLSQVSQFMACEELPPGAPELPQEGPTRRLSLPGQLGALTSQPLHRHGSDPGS

T1 sequence (P78536 whole entry, the tested form may be a part): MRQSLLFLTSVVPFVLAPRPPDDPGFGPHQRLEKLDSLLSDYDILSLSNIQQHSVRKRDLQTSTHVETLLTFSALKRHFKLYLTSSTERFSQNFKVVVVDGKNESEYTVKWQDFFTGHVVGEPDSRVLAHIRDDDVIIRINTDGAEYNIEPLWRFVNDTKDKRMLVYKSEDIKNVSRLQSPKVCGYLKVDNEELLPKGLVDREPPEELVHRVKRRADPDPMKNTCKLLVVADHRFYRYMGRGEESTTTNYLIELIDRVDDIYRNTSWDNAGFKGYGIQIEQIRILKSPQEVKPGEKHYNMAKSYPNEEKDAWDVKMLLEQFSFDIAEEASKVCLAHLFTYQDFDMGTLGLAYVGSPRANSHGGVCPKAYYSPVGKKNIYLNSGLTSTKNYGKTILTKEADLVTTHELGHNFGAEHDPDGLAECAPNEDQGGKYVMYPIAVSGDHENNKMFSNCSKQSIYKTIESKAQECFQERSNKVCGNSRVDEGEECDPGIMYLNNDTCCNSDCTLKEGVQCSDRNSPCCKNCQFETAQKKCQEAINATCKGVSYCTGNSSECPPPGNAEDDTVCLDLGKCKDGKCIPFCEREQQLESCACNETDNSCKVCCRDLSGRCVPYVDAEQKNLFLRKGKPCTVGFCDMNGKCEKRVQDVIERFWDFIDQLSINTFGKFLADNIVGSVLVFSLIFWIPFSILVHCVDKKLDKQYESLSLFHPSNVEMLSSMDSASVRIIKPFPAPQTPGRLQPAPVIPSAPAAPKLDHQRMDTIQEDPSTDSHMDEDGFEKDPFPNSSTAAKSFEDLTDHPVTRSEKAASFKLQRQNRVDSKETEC
Sequence of Neutrophil collagenase (P22894 whole entry): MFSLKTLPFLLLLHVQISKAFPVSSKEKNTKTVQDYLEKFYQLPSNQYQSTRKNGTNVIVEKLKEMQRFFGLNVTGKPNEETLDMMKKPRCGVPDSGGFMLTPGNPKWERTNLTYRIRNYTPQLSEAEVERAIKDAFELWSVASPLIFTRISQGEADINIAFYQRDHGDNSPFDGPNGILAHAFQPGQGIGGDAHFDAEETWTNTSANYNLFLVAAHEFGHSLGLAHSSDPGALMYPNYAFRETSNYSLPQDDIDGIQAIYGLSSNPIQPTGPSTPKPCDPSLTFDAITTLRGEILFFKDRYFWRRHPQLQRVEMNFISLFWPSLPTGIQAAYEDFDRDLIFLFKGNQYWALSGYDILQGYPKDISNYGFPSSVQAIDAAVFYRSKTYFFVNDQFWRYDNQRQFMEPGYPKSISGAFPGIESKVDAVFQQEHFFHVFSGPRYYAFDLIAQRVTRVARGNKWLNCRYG
Sequence of Matrix metalloproteinase-9 (P14780 whole entry): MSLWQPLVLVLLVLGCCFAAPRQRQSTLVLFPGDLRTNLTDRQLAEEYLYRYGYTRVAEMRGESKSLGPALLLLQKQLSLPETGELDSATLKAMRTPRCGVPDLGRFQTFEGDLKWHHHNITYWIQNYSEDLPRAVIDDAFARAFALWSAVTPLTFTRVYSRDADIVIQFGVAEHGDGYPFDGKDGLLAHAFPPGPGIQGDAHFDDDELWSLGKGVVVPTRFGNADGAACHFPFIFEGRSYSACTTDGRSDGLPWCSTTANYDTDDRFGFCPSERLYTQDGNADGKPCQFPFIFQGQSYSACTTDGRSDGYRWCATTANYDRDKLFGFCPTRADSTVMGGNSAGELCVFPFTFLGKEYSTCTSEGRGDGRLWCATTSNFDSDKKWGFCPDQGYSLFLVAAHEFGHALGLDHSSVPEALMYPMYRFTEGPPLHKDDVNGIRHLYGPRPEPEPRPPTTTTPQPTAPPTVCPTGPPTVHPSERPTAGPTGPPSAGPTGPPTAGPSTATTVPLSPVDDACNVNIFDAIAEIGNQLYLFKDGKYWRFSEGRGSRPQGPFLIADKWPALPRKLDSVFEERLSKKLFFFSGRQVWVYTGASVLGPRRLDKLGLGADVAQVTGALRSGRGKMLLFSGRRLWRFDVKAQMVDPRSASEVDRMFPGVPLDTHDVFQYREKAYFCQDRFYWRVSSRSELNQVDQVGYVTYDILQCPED
Sequence of 72 kDa type IV collagenase (P08253 whole entry): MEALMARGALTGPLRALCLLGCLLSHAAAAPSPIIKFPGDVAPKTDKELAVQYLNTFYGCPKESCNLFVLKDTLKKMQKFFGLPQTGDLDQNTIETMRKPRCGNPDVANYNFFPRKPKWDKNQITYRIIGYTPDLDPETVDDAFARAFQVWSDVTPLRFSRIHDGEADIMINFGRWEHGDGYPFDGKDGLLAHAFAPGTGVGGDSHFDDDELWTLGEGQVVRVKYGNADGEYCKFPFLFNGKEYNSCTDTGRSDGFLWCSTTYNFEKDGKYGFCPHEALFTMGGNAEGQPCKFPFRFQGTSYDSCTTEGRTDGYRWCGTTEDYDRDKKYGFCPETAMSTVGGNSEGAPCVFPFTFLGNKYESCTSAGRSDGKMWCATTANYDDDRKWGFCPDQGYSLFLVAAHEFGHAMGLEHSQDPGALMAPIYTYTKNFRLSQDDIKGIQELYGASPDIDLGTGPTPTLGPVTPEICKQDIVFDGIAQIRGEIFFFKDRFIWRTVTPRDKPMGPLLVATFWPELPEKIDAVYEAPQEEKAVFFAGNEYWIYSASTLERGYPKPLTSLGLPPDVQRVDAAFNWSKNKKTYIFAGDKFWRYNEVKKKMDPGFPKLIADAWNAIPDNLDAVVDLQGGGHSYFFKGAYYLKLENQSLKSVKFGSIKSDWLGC
Sequence of Stromelysin-1 (P08254 whole entry): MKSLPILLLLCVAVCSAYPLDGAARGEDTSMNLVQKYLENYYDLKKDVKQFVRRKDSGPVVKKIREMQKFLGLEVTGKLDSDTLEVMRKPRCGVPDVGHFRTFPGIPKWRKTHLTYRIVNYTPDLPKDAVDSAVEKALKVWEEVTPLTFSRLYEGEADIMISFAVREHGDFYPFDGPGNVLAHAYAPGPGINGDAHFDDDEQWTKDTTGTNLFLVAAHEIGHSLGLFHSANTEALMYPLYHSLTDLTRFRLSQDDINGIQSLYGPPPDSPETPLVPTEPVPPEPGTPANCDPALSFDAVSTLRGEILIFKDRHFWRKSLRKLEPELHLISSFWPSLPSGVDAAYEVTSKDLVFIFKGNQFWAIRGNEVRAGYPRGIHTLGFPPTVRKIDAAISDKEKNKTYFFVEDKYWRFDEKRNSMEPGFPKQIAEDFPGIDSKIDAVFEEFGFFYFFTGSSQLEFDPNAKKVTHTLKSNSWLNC
Sequence of Macrophage metalloelastase (P39900 whole entry): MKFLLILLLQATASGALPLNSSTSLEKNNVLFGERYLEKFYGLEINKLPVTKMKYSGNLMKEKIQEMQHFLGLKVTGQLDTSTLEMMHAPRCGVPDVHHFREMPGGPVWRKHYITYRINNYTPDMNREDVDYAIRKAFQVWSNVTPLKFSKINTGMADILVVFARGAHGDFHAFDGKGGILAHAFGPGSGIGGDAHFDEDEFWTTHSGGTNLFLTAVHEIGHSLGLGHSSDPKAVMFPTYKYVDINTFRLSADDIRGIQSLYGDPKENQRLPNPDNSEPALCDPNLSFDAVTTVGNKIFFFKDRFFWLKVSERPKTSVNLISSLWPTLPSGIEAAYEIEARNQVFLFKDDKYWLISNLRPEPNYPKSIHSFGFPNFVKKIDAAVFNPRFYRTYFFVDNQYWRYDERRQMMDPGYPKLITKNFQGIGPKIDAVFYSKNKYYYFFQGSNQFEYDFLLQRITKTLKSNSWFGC

IC50 [1]	solubility at 24 h [2]	remaining at 0.1 mg/ml [3]	half-life at 1 µM [4]	IC50 [8]	IC50 [9]	IC50 [10]	IC50 [11]	IC50 [12]	IC50 [13]	IC50 [14]	IC50 [15]	IC50 [16]	IC50 [17]	IC50 [18]	fraction unbound at 4 h, 5 µM [19]	Compound	selectivity ratio [5]	Activity [6]	Activity [7]	Activity [20]	also measured
0.033 µM	62 µM (≈ 33.5 µg/mL)	99%	> 24 h	0.007 µM	1.3 µM	4.6 µM	1 µM	0.09 µM	0.21 µM	3.7 µM	2.2 µM	0.006 µM	1.2 µM	4.4 µM	0.003	Cc1cc(COc2ccc(S(=O)(=O)N(C)C3(C(=O)NO)CN(C(=O)CC(C)C)C3)cc2)c2ccccc2n1	1	Non-Toxic	Non-Toxic	Non-Toxic	Activity [21]: Non-Toxic; Activity [22]: Non-Toxic; Activity [23]: Non-Toxic; Activity [24]: Non-Toxic; Activity [25]: Non-Toxic; IC50 [26]: > 100 µM
0.009 µM	84 µM (≈ 44.2 µg/mL)	99%	> 24 h	0.004 µM	0.95 µM	4.5 µM	0.89 µM	0.09 µM	0.18 µM	2.6 µM	2.1 µM	0.013 µM	1.3 µM	6.5 µM	0.019	Cc1cc(COc2ccc(S(=O)(=O)N(C)C3(C(=O)NO)CN(C(=O)C(C)C)C3)cc2)c2ccccc2n1	1	Non-Toxic	Non-Toxic	Non-Toxic	Activity [21]: Non-Toxic; Activity [22]: Non-Toxic; Activity [23]: Non-Toxic; Activity [24]: Non-Toxic; Activity [25]: Non-Toxic; IC50 [26]: > 100 µM
